{"source": "patent US11092602B2", "about": "“Methods and compositions relating to proteasome inhibitor resistance” (Whitehead Institute for Biomedical Research, priority 2015, dated 2021)", "key": {"T47D cells [1]": {"tested_on": "T47D cells", "assay": "Cell viability of T47D cells with doxycycline-inducible PSMD2 shRNA", "assay_type": "cell-based, human", "experimental": "T47D cells harboring a doxycycline inducible control shRNA (GFP) or a doxycycline-inducible PSMD2 shRNA (TurboRFP) were incubated with doxycycline for 3 days. Cells were then split and grown in the absence of Dox and proteasome inhibitors were then added at various concentrations. Cells were maintained in culture and then counted.\nFor the generation of the T47D Tet-inducible PSMD2 knockdown cell line—the TRIPZ vector with an inducible shRNA targeting PSMD2 was purchased from Dharmacon (clone V3THS_403760). It was introduced to the T47D cells according to manufactures protocol and cells were selected with puromycin 1 μg/ml for one week. The cells were exposed to doxycycline for 24 hours and cells were FACS sorted for the top 10% of most RFP expressing cells (highest expression of shRNA). The cells were further cultured in the absence of doxycycline and PSMD2 knockdown was induced as specified in the relevant Examples.\nRelative cell growth and survival were measured in 96-well microplate format in the shRNA experiments and in 384 well format in the drug toxicity assays, by using the fluorescent detection of resazurin dye reduction as an endpoint (544 nm excitation and 590 nm emission). 2,500 cells in 96 wells format or 1,000 cells in 384 well format were plated 24 hours before compound exposure (for 72 hours or indicated time). Each analysis was performed at least with three replicas."}, "20S proteasome": {"molecular_target": "20S proteasome (Homo sapiens, UniProt P28074)", "assay": "Native gel analysis of proteasomal complexes with Suc-LLVY-AMC substrate overlay", "assay_type": "biochemical", "details": "12 nM bortezomib for 24 hours", "description": "We first separated 20S and 26S proteasomes on native gels and examined effects on the relative levels of 26S and 20S proteasome complexes. In cells with reduced levels of either PSMC5 or PSMD2, 26S proteasome complexes were reduced and 20S proteasome complexes were increased (FIGS. 2E and 2F). These changes persisted in the presence of bortezomib (FIGS. 2E and 2F). Next, we assayed their activity with a fluorescently labeled substrate.\nProteasomal samples were loaded on a nondenaturing 4% polyacrylamide gel using the protocol described previously (Tsvetkov et al., 2014). Gels were either overlaid with Suc-LLVY-AMC (50 μM) for assessment of proteasomal activity or transferred to nitrocellulose membranes where immunoblotting specific for proteasomal subunits was conducted. Proteasomal activity was assessed by measuring the hydrolysis of Suc-LLVY-AMC by substrate overlay assays in native polyacrylamide gels with 50 mM Tris-HCl, pH 7.8, 5 mM MgCl2, 1 mM DTT, 2 mM ATP, 50 μM Suc-LLVY-AMC peptide, and incubating the gels at 37° C. for 30-60 min. Activity was visualized by transilluminated by a UV light and photographed with BIORAD Chemidoc imaging system."}, "T47D cells [2]": {"tested_on": "T47D cells", "assay": "Competition co-culture of shPSMD2-RFP and shControl-GFP T47D cells, FACS and microscopy", "assay_type": "cell-based, human", "details": "48 hours", "protocol": "We created two cell lines—one line that expresses red fluorescent protein (turboRFP) and the doxycycline-inducible PSMD2-targeting shRNA and another line that expresses green fluorescent protein (GFP) and a doxycycline-inducible control shRNA (FIG. 6A). First, we induced shRNA expression with doxycycline for 48 hours. After recovery, we mixed shPSMD2-RFP and shControl-GFP cells at different ratios (either 1:1, 1:2, 1:5 or 1:10), adding the cells with reduced PSMD2 as the minority subpopulation. Twenty-four hours after plating, we treated these mixed populations of cells for 48 hours with increasing concentrations of bortezomib (5, 7.5 or 10 nM). We allowed the cells to recover in the absence of bortezomib and then we quantified the red and green cells by FACS analysis (FIG. 6A) and captured representative images by fluorescence microscopy (FIG. 6B).\nThe experiment described in Example 10 was repeated with minor differences using a panel of different proteasome inhibitors: MLN2238, MLN9708, and oprozomib T47D cells harboring a doxycycline inducible control shRNA (GFP) or a doxycycline-inducible PSMD2 shRNA (TurboRFP) were incubated with doxycycline for 3 days. Cells were collected, counted, and plated at a 1:10 ratio of TurboRFP-expressing PSMD2 shRNA cells/GFP expression control shRNA cells in the absence of Dox. Proteasome inhibitors were added at the specified concentrations and cells were maintained in culture. Cells were allowed to recover in the absence of the proteasome inhibitor and then analyzed by FACS (FIG. 8B, top) or visualized by microscopy (FIG. 8B, bottom). In the absence of proteasome inhibitors, the initial plating ratio of these cells (1:10) was maintained over the duration of the experiment (FIG. 8B). […] The effect was concentration-dependent in that higher concentrations elicited more substantial shifts.\ncells were trypsinized in 100 μL Accumax® solution and further diluted into 100 μl PBSx1. The number of cells with red or green fluorescent proteins was measured by MACSQuant® VYB according to manufactures protocol. Images of RFP and GFP were created by overlaying images using Fiji software."}, "[3]": {"tested_on": "relapsed multiple myeloma", "assay": "Phase 2 and 3 clinical trials of bortezomib in relapsed multiple myeloma, stratified by sigma score", "assay_type": "in vivo, human", "description": "We analyzed gene expression data from 135 patients with relapsed multiple myeloma who participated in Phase II or III trials of bortezomib (˜2007; Mulligan, G., Mitsiades, et al. (2007) Gene expression profiling and correlation with outcome in clinical trials of the proteasome inhibitor bortezomib. Blood 109, 3177-3188) and determined the sigma score for each cancer. The sigma score for each cancer (prior to treatment) was computed by comparing the expression of each 19S subunit (except PSMC4, which was not included in the analysis for technical reasons) in each cancer with the average expression of that subunit in the total set of cancers (reference level) and determining the number of standard deviations by which each expression level differed from the reference level.\nMethods details: re-treatment gene expression data from relapsed multiple myeloma patients undergoing clinical trials with bortezomib were downloaded from GSE9782 (34). Gene expression data was RMA normalized and log transformed. Sigma scores were calculated from all probes. […] For each group, the time to relapse from bortezomib treatment was plotted as a Kaplan-Meier plot. P-value was calculated using Wilcoxon test."}, "[4]": {"tested_on": "protein degradation and protein synthesis", "assay": "Translation and degradation assays (3H-phenylalanine)", "assay_type": "cell-based, human", "details": "10 nM bortezomib", "protocol": "Next we examined the impact of reducing PSMD2 levels on protein degradation and protein synthesis. Cells were labeled with tritiated-phenylalanine for 24 hrs. We then separately measured the rates at which labeled proteins were degraded through the proteasome and through the lysosome.\nTo measure rates of protein synthesis, cells were pulse labeled with tritiated-phenylalanine for 1 hr.\nFor measuring overall rate of synthesis, cells were pretreated with 10 nM Bortezomib for 20 hours, then incorporation of ^3H-phenylalanine was measured for 1 h. The rate of synthesis was described as counts incorporated into cell proteins per hour and per μg of total cell proteins. When working with T47D cells, knockdown of PSMD2 was induced for 3 days with doxycycline before bortezomib treatment. For measuring overall rates of protein degradation, pulse-labeling with ^3H-phenylalanine for 24 hours was done before the bortezomib treatment as previously described (Zhao et al., 2007)."}, "[5]": {"details": "cells with transiently reduced PSMD2, 20 hours"}}, "note": "“Also recorded” adds a separate entry of the source.", "data": [{"smiles": "CC(C)C[C@H](NC(=O)[C@H](Cc1ccccc1)NC(=O)c1cnccn1)B(O)O", "note": "[bortezomib]", "values": [{"measurement": "resistance upon doxycycline-induced reduction of PSMD2", "setting": "T47D cells [1]; PSMD2 shRNA versus control", "value": "significantly increased resistance; also recorded: increase in resistance"}, {"measurement": "resistance of cells harboring the PSMD2 shRNA versus parental line (EC50)", "setting": "T47D cells [1]; doxycycline 3 days, 96 hour culture", "value": "considerably more resistant"}, {"measurement": "20S proteasome activity", "setting": "20S proteasome; cells with reduced PSMC5 or PSMD2", "value": "maintained a significant level of 20S proteasome activity"}, {"measurement": "20S proteasome function", "setting": "20S proteasome; control cells", "value": "nearly complete inactivation of 20S proteasome function"}, {"measurement": "shift of surviving cell populations towards shPSMD2-RFP cells", "setting": "T47D cells [2]; 5 nM, ratios 1:1, 1:2, 1:5, 1:10", "value": "substantially shifted the populations of surviving cells"}, {"measurement": "shift of surviving cell populations towards shPSMD2-RFP cells", "setting": "T47D cells [2]; 7.5 nM and 10 nM", "value": "even more substantial shifts"}, {"measurement": "time to progression", "setting": "[3]; 34 patients with reduced expression of at least one 19S subunit versus patients without, p-value=0.0086", "value": "shortened time to progression"}, {"measurement": "progression-free survival", "setting": "[3]; patients with 3-Sigma disease versus sigma score less than 3", "value": "Reduced Progression-Free Survival"}, {"measurement": "effectiveness over dexamethasone control", "setting": "[3]; patients with reduced expression of 19S proteasome subunit(s)", "value": "no significant effectiveness over the dexamethasone control"}, {"measurement": "rates of proteolysis by the lysosome", "setting": "[4]; 20-hour treatment", "value": "remained unchanged"}, {"measurement": "inhibition of proteasome degradation", "setting": "[4]; [5]", "value": "strongly counteracted"}, {"measurement": "suppression of protein synthesis", "setting": "[4]; [5]", "value": "strongly counteracted"}, {"measurement": "rate of protein degradation", "setting": "[4]; control cells, 20-hour treatment", "value": "sharply decreased"}, {"measurement": "rate of protein synthesis", "setting": "[4]; control cells, 20 hours", "value": "sharply decreased"}]}]}
